Source: the NIST ThermoML archive (doi:10.1021/je300584m)
Numbers after ± are expanded uncertainties.

Tests used:
[1] = Molar enthalpy of transition or fusion; settings: Crystal; DSC

For O=C1c2ccccc2-c2ccccc21 [9(9H)-fluorenone], the “vapor or sublimation pressure” value (312.19 K, Crystal, Calculated from knudsen effusion weight loss) was 8.9e-05 ± 2e-05 kPa, the “vapor or sublimation pressure” value (314.21 K, Crystal, Calculated from knudsen effusion weight loss) was 0.000115 ± 2e-05 kPa and the “vapor or sublimation pressure” value (316.11 K, Crystal, Calculated from knudsen effusion weight loss) was 0.000143 ± 2.1e-05 kPa. The “vapor or sublimation pressure” value (318.18 K, Crystal, Calculated from knudsen effusion weight loss) was 0.00018 ± 2.1e-05 kPa, the “vapor or sublimation pressure” value (320.2 K, Crystal, Calculated from knudsen effusion weight loss) was 0.000225 ± 2.2e-05 kPa and the “vapor or sublimation pressure” value (322.11 K, Crystal, Calculated from knudsen effusion weight loss) was 0.000273 ± 2.2e-05 kPa. For the same compound, the “vapor or sublimation pressure” value (324.19 K, Crystal, Calculated from knudsen effusion weight loss) was 0.000344 ± 2.3e-05 kPa, the “vapor or sublimation pressure” value (326.19 K, Crystal, Calculated from knudsen effusion weight loss) was 0.00043 ± 2.5e-05 kPa and the “vapor or sublimation pressure” value (326.88 K, Crystal, Closed cell (Static) method) was 0.00045 ± 0.00011 kPa. The “vapor or sublimation pressure” value (327.85 K, Liquid, Closed cell (Static) method) was 0.0008 ± 0.0001 kPa, the “vapor or sublimation pressure” value (328.11 K, Crystal, Calculated from knudsen effusion weight loss) was 0.000528 ± 2.7e-05 kPa and the “vapor or sublimation pressure” value (328.32 K, Crystal, Closed cell (Static) method) was 0.00053 ± 0.00011 kPa. The “vapor or sublimation pressure” value (329.82 K, Liquid, Closed cell (Static) method) was 0.00095 ± 0.00012 kPa, the “vapor or sublimation pressure” value (329.83 K, Crystal, Closed cell (Static) method) was 0.00061 ± 0.00011 kPa and the “vapor or sublimation pressure” value (330.18 K, Crystal, Calculated from knudsen effusion weight loss) was 0.000638 ± 3e-05 kPa. For the same compound, the “vapor or sublimation pressure” value (331.3 K, Crystal, Closed cell (Static) method) was 0.00072 ± 0.00012 kPa, the “vapor or sublimation pressure” value (331.79 K, Liquid, Closed cell (Static) method) was 0.00112 ± 0.00012 kPa and the “vapor or sublimation pressure” value (332.18 K, Crystal, Calculated from knudsen effusion weight loss) was 0.000796 ± 3.5e-05 kPa. For the same compound, the “vapor or sublimation pressure” value (332.81 K, Crystal, Closed cell (Static) method) was 0.00085 ± 0.00012 kPa, the “vapor or sublimation pressure” value (333.8 K, Liquid, Closed cell (Static) method) was 0.00133 ± 0.00012 kPa and the “vapor or sublimation pressure” value (334.1 K, Crystal, Calculated from knudsen effusion weight loss) was 0.000977 ± 4e-05 kPa. The “vapor or sublimation pressure” value (334.29 K, Crystal, Closed cell (Static) method) was 0.00098 ± 0.00012 kPa, the “vapor or sublimation pressure” value (335.78 K, Crystal, Closed cell (Static) method) was 0.00113 ± 0.00012 kPa and the “vapor or sublimation pressure” value (335.78 K, Liquid, Closed cell (Static) method) was 0.00159 ± 0.00013 kPa. The “vapor or sublimation pressure” value (337.25 K, Crystal, Closed cell (Static) method) was 0.00133 ± 0.00013 kPa, the “vapor or sublimation pressure” value (337.74 K, Liquid, Closed cell (Static) method) was 0.00185 ± 0.00014 kPa and the “vapor or sublimation pressure” value (338.75 K, Crystal, Closed cell (Static) method) was 0.00153 ± 0.00013 kPa. The “vapor or sublimation pressure” value (339.72 K, Liquid, Closed cell (Static) method) was 0.00217 ± 0.00014 kPa, the “vapor or sublimation pressure” value (340.21 K, Crystal, Closed cell (Static) method) was 0.00177 ± 0.00013 kPa and the “vapor or sublimation pressure” value (341.69 K, Crystal, Closed cell (Static) method) was 0.00205 ± 0.00014 kPa. For the same compound, the “vapor or sublimation pressure” value (341.76 K, Liquid, Closed cell (Static) method) was 0.00258 ± 0.00015 kPa, the “vapor or sublimation pressure” value (343.19 K, Crystal, Closed cell (Static) method) was 0.00235 ± 0.00015 kPa and the “vapor or sublimation pressure” value (343.72 K, Liquid, Closed cell (Static) method) was 0.00299 ± 0.00017 kPa. For the same compound, the “vapor or sublimation pressure” value (344.68 K, Crystal, Closed cell (Static) method) was 0.00272 ± 0.00016 kPa, the “vapor or sublimation pressure” value (345.66 K, Liquid, Closed cell (Static) method) was 0.00348 ± 0.00018 kPa and the “vapor or sublimation pressure” value (346.2 K, Crystal, Closed cell (Static) method) was 0.00311 ± 0.00017 kPa. The “vapor or sublimation pressure” value (347.68 K, Crystal, Closed cell (Static) method) was 0.00355 ± 0.00018 kPa, the “vapor or sublimation pressure” value (347.68 K, Liquid, Closed cell (Static) method) was 0.00409 ± 0.0002 kPa and the “vapor or sublimation pressure” value (349.17 K, Crystal, Closed cell (Static) method) was 0.00409 ± 0.0002 kPa. The “vapor or sublimation pressure” value (349.66 K, Liquid, Closed cell (Static) method) was 0.00468 ± 0.00022 kPa, the “vapor or sublimation pressure” value (350.65 K, Crystal, Closed cell (Static) method) was 0.00467 ± 0.00022 kPa and the “vapor or sublimation pressure” value (351.63 K, Liquid, Closed cell (Static) method) was 0.00545 ± 0.00025 kPa. For the same compound, the “vapor or sublimation pressure” value (352.14 K, Crystal, Closed cell (Static) method) was 0.00544 ± 0.00024 kPa, the “vapor or sublimation pressure” value (353.63 K, Liquid, Closed cell (Static) method) was 0.0063 ± 0.0003 kPa and the “vapor or sublimation pressure” value (355.58 K, Liquid, Closed cell (Static) method) was 0.00731 ± 0.00031 kPa. The “vapor or sublimation pressure” value (357.59 K, Liquid, Closed cell (Static) method) was 0.0084 ± 0.0004 kPa, the “vapor or sublimation pressure” value (359.82 K, Liquid, Closed cell (Static) method) was 0.00981 ± 0.0004 kPa and the “vapor or sublimation pressure” value (361.57 K, Liquid, Closed cell (Static) method) was 0.01112 ± 0.00045 kPa. For the same compound, the “vapor or sublimation pressure” value (361.59 K, Liquid, Closed cell (Static) method) was 0.01107 ± 0.00045 kPa, the “vapor or sublimation pressure” value (363.79 K, Liquid, Closed cell (Static) method) was 0.01285 ± 0.00052 kPa and the “vapor or sublimation pressure” value (365.52 K, Liquid, Closed cell (Static) method) was 0.01446 ± 0.00054 kPa. For the same compound, the “vapor or sublimation pressure” value (367.74 K, Liquid, Closed cell (Static) method) was 0.01661 ± 0.00057 kPa, the “vapor or sublimation pressure” value (369.53 K, Liquid, Closed cell (Static) method) was 0.01887 ± 0.00061 kPa and the “vapor or sublimation pressure” value (371.72 K, Liquid, Closed cell (Static) method) was 0.02159 ± 0.00065 kPa. The “vapor or sublimation pressure” value (373.53 K, Liquid, Closed cell (Static) method) was 0.02435 ± 0.00069 kPa, the “vapor or sublimation pressure” value (375.67 K, Liquid, Closed cell (Static) method) was 0.02768 ± 0.00074 kPa and the “vapor or sublimation pressure” value (377.47 K, Liquid, Closed cell (Static) method) was 0.03128 ± 0.0008 kPa. For the same compound, the “vapor or sublimation pressure” value (379.65 K, Liquid, Closed cell (Static) method) was 0.03529 ± 0.00086 kPa, the “vapor or sublimation pressure” value (381.4 K, Liquid, Closed cell (Static) method) was 0.03955 ± 0.00092 kPa and the “vapor or sublimation pressure” value (383.6 K, Liquid, Closed cell (Static) method) was 0.04451 ± 0.001 kPa. For the same compound, the “vapor or sublimation pressure” value (385.47 K, Liquid, Closed cell (Static) method) was 0.05021 ± 0.0011 kPa, the “vapor or sublimation pressure” value (387.56 K, Liquid, Closed cell (Static) method) was 0.05645 ± 0.0012 kPa and the “vapor or sublimation pressure” value (391.51 K, Liquid, Closed cell (Static) method) was 0.07082 ± 0.0014 kPa. For the same compound, the “vapor or sublimation pressure” value (393.41 K, Liquid, Closed cell (Static) method) was 0.07755 ± 0.0015 kPa, the “vapor or sublimation pressure” value (395.41 K, Liquid, Closed cell (Static) method) was 0.08762 ± 0.0017 kPa and the “vapor or sublimation pressure” value (397.36 K, Liquid, Closed cell (Static) method) was 0.09675 ± 0.0018 kPa. For the same compound, the “vapor or sublimation pressure” value (399.35 K, Liquid, Closed cell (Static) method) was 0.1089 ± 0.002 kPa, the “vapor or sublimation pressure” value (401.32 K, Liquid, Closed cell (Static) method) was 0.1202 ± 0.0022 kPa and the “vapor or sublimation pressure” value (403.3 K, Liquid, Closed cell (Static) method) was 0.1342 ± 0.0021 kPa. The “vapor or sublimation pressure” value (406.25 K, Liquid, Closed cell (Static) method) was 0.1558 ± 0.0023 kPa, the “vapor or sublimation pressure” value (407.26 K, Liquid, Closed cell (Static) method) was 0.1646 ± 0.0023 kPa and the “vapor or sublimation pressure” value (409.18 K, Liquid, Closed cell (Static) method) was 0.1808 ± 0.0025 kPa. For the same compound, the “vapor or sublimation pressure” value (411.21 K, Liquid, Closed cell (Static) method) was 0.2014 ± 0.0026 kPa, the “vapor or sublimation pressure” value (413.17 K, Liquid, Closed cell (Static) method) was 0.2206 ± 0.0028 kPa and the “vapor or sublimation pressure” value (415.17 K, Liquid, Closed cell (Static) method) was 0.244 ± 0.003 kPa. For the same compound, the “vapor or sublimation pressure” value (417.11 K, Liquid, Closed cell (Static) method) was 0.2679 ± 0.0032 kPa, the “vapor or sublimation pressure” value (419.13 K, Liquid, Closed cell (Static) method) was 0.2948 ± 0.0035 kPa and the “vapor or sublimation pressure” value (421.06 K, Liquid, Closed cell (Static) method) was 0.3242 ± 0.0037 kPa. The “vapor or sublimation pressure” value (423.04 K, Liquid, Closed cell (Static) method) was 0.355 ± 0.004 kPa, the “vapor or sublimation pressure” value (425 K, Liquid, Closed cell (Static) method) was 0.3873 ± 0.0043 kPa and the “vapor or sublimation pressure” value (427.02 K, Liquid, Closed cell (Static) method) was 0.4288 ± 0.0046 kPa. The “vapor or sublimation pressure” value (428.95 K, Liquid, Closed cell (Static) method) was 0.467 ± 0.005 kPa, the “vapor or sublimation pressure” value (430.77 K, Liquid, Closed cell (Static) method) was 0.511 ± 0.005 kPa and the “vapor or sublimation pressure” value (432.92 K, Liquid, Closed cell (Static) method) was 0.5574 ± 0.0057 kPa. The “vapor or sublimation pressure” value (434.9 K, Liquid, Closed cell (Static) method) was 0.604 ± 0.006 kPa, the “vapor or sublimation pressure” value (436.86 K, Liquid, Closed cell (Static) method) was 0.6602 ± 0.0066 kPa and the “vapor or sublimation pressure” value (438.87 K, Liquid, Closed cell (Static) method) was 0.7204 ± 0.0071 kPa. For the same compound, the “vapor or sublimation pressure” value (440.85 K, Liquid, Closed cell (Static) method) was 0.7844 ± 0.0077 kPa, the Normal melting temperature (Crystal, DTA) was 83.01 ± 0.56 °C and the “Molar enthalpy of transition or fusion” value [1] was 4.21 ± 0.359 kcal/mol.
